Patent EP0637237B1, “CALCIUM RECEPTOR-ACTIVE MOLECULES” (BRIGHAM AND WOMEN'S HOSPITAL, INC., priority 1993, dated 1994)
Where two headings read alike, the source gives them in different places.

Assays:
[1] = test system: osteoclast Ca^2+ receptor; experiment: [Ca2+]i (indo-1) in single rat osteoclasts; format: cell-based
[2] = Net positive charge of the molecule; format: physicochemical; conditions: Table 1; effective charge at physiological pH
[3] = target: T1, bovine parathyroid Ca^2+-receptor (Bos taurus, UniProt P35384); experiment: Cl- current in Xenopus oocytes expressing the cloned receptor (BoPCaR 1); format: cell-based; conditions: neomycin 20-100 µM
T1 construct: expressed in transfected cells; host or cells: Xenopus laevis oocytes injected with cRNA from the BoPCaR 1 cDNA (plasmid pSPORT1, ATCC 75416)
T1 sequence (P35384 20-1085): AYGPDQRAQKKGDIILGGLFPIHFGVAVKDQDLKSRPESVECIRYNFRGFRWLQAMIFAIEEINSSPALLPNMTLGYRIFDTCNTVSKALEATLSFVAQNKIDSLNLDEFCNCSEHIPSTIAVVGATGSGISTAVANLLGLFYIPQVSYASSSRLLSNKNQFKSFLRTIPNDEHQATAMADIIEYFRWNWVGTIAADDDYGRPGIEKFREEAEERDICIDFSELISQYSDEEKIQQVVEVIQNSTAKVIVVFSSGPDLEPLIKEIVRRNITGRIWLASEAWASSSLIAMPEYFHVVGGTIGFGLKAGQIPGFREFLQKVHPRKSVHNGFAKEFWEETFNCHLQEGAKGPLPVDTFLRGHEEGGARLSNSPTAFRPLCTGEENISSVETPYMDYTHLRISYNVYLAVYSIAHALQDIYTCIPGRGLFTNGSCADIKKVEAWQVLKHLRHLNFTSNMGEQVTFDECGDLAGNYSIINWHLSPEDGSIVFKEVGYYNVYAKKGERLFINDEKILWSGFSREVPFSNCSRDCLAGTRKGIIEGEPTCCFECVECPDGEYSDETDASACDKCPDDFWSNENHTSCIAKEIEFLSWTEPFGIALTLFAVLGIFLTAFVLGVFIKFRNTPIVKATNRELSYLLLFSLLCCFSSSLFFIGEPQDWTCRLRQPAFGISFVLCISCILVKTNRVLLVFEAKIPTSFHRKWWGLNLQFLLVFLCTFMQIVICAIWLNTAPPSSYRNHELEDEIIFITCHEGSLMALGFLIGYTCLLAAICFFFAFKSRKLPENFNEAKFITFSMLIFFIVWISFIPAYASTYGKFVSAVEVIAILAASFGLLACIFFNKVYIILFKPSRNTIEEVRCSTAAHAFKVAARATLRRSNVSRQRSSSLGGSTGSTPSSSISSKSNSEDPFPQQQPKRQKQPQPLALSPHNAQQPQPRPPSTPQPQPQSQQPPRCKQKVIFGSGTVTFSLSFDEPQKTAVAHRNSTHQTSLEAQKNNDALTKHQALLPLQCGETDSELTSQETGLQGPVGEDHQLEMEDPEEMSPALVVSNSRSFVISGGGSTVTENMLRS

[4] = target: T2, parathyroid cell Ca^2+ receptor (Bos taurus, UniProt P35384); format: cell-based, bovine
T2 sequence (P35384 20-1085): T1 sequence (P35384 20-1085)

Ca^2+ receptor = target: T3, Ca^2+ receptor (Homo sapiens, UniProt P41180); experiment: Cl- current in Xenopus oocytes injected with human parathyroid poly(A)+ mRNA; format: cell-based
T3 construct: Oocytes were injected with poly(A)^+-enriched mRNA from human parathyroid tissue (hyperplastic glands from a case of secondary HPT); expressed in transfected cells; host or cells: Xenopus laevis oocytes injected with poly(A)+ mRNA from hyperplastic human parathyroid glands
T3 sequence (P41180 20-1078): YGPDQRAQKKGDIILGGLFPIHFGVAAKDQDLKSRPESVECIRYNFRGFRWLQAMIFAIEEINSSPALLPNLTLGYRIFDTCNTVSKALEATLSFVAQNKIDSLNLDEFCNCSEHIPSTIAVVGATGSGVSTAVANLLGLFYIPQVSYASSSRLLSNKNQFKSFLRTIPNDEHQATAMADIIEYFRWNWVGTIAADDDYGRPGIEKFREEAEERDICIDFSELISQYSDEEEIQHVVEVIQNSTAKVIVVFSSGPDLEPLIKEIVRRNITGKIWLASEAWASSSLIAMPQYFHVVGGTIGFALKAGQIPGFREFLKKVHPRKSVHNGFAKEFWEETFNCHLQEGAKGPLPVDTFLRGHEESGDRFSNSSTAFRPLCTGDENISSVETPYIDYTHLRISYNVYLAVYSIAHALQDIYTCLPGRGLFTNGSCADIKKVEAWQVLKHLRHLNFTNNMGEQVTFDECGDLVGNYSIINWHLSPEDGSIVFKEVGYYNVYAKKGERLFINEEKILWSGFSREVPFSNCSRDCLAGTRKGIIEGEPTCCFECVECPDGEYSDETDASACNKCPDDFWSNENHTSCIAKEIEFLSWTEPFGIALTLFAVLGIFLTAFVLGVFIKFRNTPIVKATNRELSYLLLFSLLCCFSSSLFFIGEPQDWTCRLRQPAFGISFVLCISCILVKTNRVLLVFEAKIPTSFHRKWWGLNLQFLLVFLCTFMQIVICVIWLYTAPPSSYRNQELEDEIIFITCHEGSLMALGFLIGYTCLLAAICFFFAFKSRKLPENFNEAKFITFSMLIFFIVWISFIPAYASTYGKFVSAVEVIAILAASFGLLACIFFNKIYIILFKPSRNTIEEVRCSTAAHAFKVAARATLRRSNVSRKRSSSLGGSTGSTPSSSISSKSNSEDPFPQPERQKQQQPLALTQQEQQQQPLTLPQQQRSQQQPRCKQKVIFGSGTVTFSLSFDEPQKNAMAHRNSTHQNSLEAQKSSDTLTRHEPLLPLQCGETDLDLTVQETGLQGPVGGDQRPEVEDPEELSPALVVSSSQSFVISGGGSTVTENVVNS

NC[C@@H]1O[C@H](O[C@H]2[C@@H](O)[C@H](O[C@@H]3[C@@H](O)[C@H](N)C[C@H](N)[C@H]3O[C@H]3O[C@H](CN)[C@@H](O)[C@H](O)[C@H]3N)O[C@@H]2CO)[C@H](N)[C@@H](O)[C@@H]1O [neomycin B]
effect on basal [Ca2+]i ([1]; 5 mM): without effect on basal [Ca^2+]i | effect on the response to subsequent extracellular Ca2+ (25 mM) ([1]; neomycin 10 mM, spermine 20 mM, verapamil 100 µM): did not block | increase in [Ca2+]i in rat osteoclasts ([1]; neomycin 10 mM, spermine 10 or 20 mM): Neither neomycin (10 mM) nor spermine (10 or 20 mM) caused increases in [Ca^2+]i | increase in [Ca2+]i in osteoclasts ([1]; neomycin B 1 mM, spermine 1 or 5 mM, Fig. 23): failed to evoke any increase in [Ca^2+]i | increase in [Ca2+]i in osteoclasts ([1]; screening, small responses were detected): none of these caused any large increase in [Ca^2+]i | Net (+) Charge [2]: +6 | changes in Cl- current [3]: produced changes in Cl^- current in oocytes essentially identical to those produced by Ca^2+ or Gd^3+ | [Ca2+]i response in Ca2+-free buffer ([4]; 100 µM neomycin (maximally effective), absence of extracellular Ca2+): rapid and transient increase in [Ca^2+]i | [Ca2+]i response in Ca2+-free buffer ([4]; 10 àM neomycin alone (submaximal), Ca2+-free buffer): did not by itself cause an increase in [Ca^2+]i | mobilization of intracellular Ca2+ in oocytes expressing the Ca2+ receptor (Ca^2+ receptor; hexacyclen 135 µM, neomycin 100 µM, NPS 382 5 mM): effective | change in current in water-injected oocytes (Ca^2+ receptor; neomycin B 10 mM, five water-injected oocytes): failed to cause any change in the current
